For 27 compounds, EC50 results are on record in patent publication US20240327393A1 (SIRONAX LTD., priority 2021, published 2024).

The assay relates to HT-1080 (ATCC, CCL-121) cells. In words: HT-1080 cell viability assay with ferroptosis inducer RSL3 (Cell Titer-Glo). Particulars: Homo sapiens, HT-1080 cells treated with RSL3, 3-fold, 10-point dilution, 1.1 μM highest concentration, read-out: EC50 (nM), ferroptosis inhibitory activity. The assay is classed as cell-based. Summed up:
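HT-1080 cells (6000 per well) were cultured overnight at 37 °C, then co-treated with RSL3 and compound in a 3-fold, 10-point series topping at 1.1 μM. Viability was read by CellTiter-Glo luminescence and normalized to untreated controls. EC50 came from a sigmoidal non-linear regression fit.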
Background: ATP-based viability assays read luminescence as a measure of living cells.

The term EC50 denotes the concentration that produces a half-maximal response.

Like-named read-outs stand apart in the source and are kept apart here.

Consider `Cc1cc(N2CC(C)OC(C)C2)ccc1Nc1ccc2c(c1)C(C)(C)C(=O)N2C` (stereo not drawn) [Compound 438, 5-((4-(2,6-dimethylmorpholino)-2-methylphenyl)amino)-1,3,3-trimethylindolin-2-one], for which the EC50 (Table 2) is 0.1 to 100 nM.
Consider `Cc1cc(N2CC(F)(F)C2)ccc1Nc1ccc2c(c1)OCCC(=O)N2` [Compound 626, 8-((4-(3,3-difluoroazetidin-1-yl)-2-methylphenyl)amino)-2,3-dihydrobenzo[b][1,4]oxazepin-4(5H)-one], for which the half-maximal effective concentration (EC50) (Table 3) lay within 0.1 to 100 nM.
Turning to `Cn1c(=O)oc2cc(Nc3ccc(C4CCC(C)(C)CC4)cc3)ccc21` [Compound 406, 6-((4-(4,4-dimethylcyclohexyl)phenyl)amino)-3-methylbenzo[d]oxazol-2(3H)-one], the concentration giving a half-maximal response (EC50) (Table 2) is 0.1 to 100 nM.
The same measure, in the same setting: with `CC(C)(C)N1Cc2cc(Nc3ccc(N4CCC(C(F)(F)F)CC4)cc3)ccc2C1=O` [Compound 197, 2-(tert-butyl)-5-((4-(4-(trifluoromethyl)piperidin-1-yl)phenyl)amino) isoindolin-1-one] the figure was 0.1 to 100 nM.
Same read-out and setting: with `O=C1COc2cc(Nc3cc(F)c(N4CCC(C(F)(F)F)CC4)c(F)c3)ccc2N1` [Compound 136, 7-((3,5-difluoro-4-(4-(trifluoromethyl)piperidin-1-yl)phenyl)amino)-2H-benzo[b][1,4]oxazin-3(4H)-one] the figure was 0.1 to 100 nM.
Take `O=c1[nH]c2cc(Nc3ccc(N4CCC(C(F)(F)F)CC4)cc3)ccc2o1` [Compound 433, 5-((4-(4-(trifluoromethyl)piperidin-1-yl)phenyl)amino) benzo[d]oxazol-2(3H)-one]: the half-maximal effective concentration (EC50) (Table 2) is 0.1 to 100 nM.
Regarding `Cc1cc(N2CCC(C(F)(F)F)CC2)ccc1Nc1ccc2c(c1)OC(CN)C(=O)N2` (stereo not drawn) [Compound 592, 2-(aminomethyl)-7-((2-methyl-4-(4-(trifluoromethyl)piperidin-1-yl)phenyl)amino)-2H-benzo[b][1,4]oxazin-3(4H)-one], under “Table 3”, the concentration for a half-maximal effect (EC50) lay in the range of 0.1 to 100 nM.
With `CN1Cc2cc(Nc3ccc(N4CCC(F)(F)CC4)cc3)ccc2C1=O` [Compound 172, 5-((4-(4,4-difluoropiperidin-1-yl)phenyl)amino)-2-methylisoindolin-1-one], the EC50 (Table 2) lay within 0.1 to 100 nM.
In the case of `Cc1cc(N2CCC(C(F)(F)F)CC2)ccc1Nc1ccc2c(c1)COC(=O)N2` [Compound 539, 6-((2-methyl-4-(4-(trifluoromethyl)piperidin-1-yl)phenyl)amino)-1,4-dihydro-2H-benzo[d][1,3]oxazin-2-one], where the note is “Table 3”, the concentration for a half-maximal effect (EC50) lay within 0.1 to 100 nM.
With `CNc1cc(Nc2ccc3c(c2)OCC(=O)N3C)ccc1N1CC(C)OC(C)C1` (stereo not drawn) [Compound 19, 7-((4-(2,6-dimethylmorpholino)-3-(methylamino)phenyl)amino)-4-methyl-2H-benzo[b][1,4]oxazin-3(4H)-one], the EC50 (Table 2) lay in the range of 0.1 to 100 nM.
Same read-out and setting: with `CCCCCOc1ccc(Nc2ccc3c(c2)OCC(=O)N3C)cc1OC` [Compound 32, 7-((3-methoxy-4-(pentyloxy)phenyl)amino)-4-methyl-2H-benzo[b][1,4]oxazin-3(4H)-one] the figure was 0.1 to 100 nM; with `CN1Cc2cc(Nc3ccc(N(C)C)cc3)ccc2C1=O` [Compound 227, 5-((4-(dimethylamino)phenyl)amino)-2-methylisoindolin-1-one], 0.1 to 100 nM.
On the same count and under the same terms, with `CN1C(=O)COc2cc(Nc3ccc(N4CC5CCC(C4)O5)c(F)c3)ccc21` [Compound 89, 7-((4-(8-oxa-3-azabicyclo[3.2.1]octan-3-yl)-3-fluorophenyl)amino)-4-methyl-2H-benzo[b][1,4]oxazin-3(4H)-one] the figure was 0.1 to 100 nM.
Same read-out and setting: the figure for `CC1CCN(c2ccc(Nc3ccc4c(c3)n(C)c(=N)n4C)cc2)CC1` [Compound 345, 2-imino-1,3-dimethyl-N-(4-(4-methylpiperidin-1-yl)phenyl)-2,3-dihydro-1H-benzo[d]imidazol-5-amine] is 0.1 to 100 nM.
`Cc1cc(N2CCCCC2)ccc1Nc1ccc2c(c1)OCC(=O)N2` [Compound 470, 7-((2-methyl-4-(piperidin-1-yl)phenyl)amino)-2H-benzo[b][1,4]oxazin-3(4H)-one]: the EC50 (Table 3) lay in the range of 0.1 to 100 nM.
Still for that read-out and setting: the figure for `CC1CC(c2ccc(Nc3ccc4c(c3)OCC(=O)N4)cc2)CCO1` (stereo not drawn) [Compound 479, 7-((4-(2-methyltetrahydro-2H-pyran-4-yl)phenyl)amino)-2H-benzo[b][1,4]oxazin-3(4H)-one] is 0.1 to 100 nM.
Regarding `CN1C(=O)OCc2cc(Nc3ccc(N4CCC(C(F)(F)F)CC4)cc3)ccc21` [Compound 128, 1-methyl-6-((4-(4-(trifluoromethyl)piperidin-1-yl)phenyl)amino)-1,4-dihydro-2H-benzo[d][1,3]oxazin-2-one], for the setting “Table 2”, the EC50 is 0.1 to 100 nM.
On the same count and under the same terms, the figure for `CN1C(=O)COc2cc(Nc3ccc4c(c3)C(C)(C)CC4(C)C)ccc21` [Compound 39, 4-methyl-7-((1,1,3,3-tetramethyl-2,3-dihydro-1H-inden-5-yl)amino)-2H-benzo[b][1,4]oxazin-3(4H)-one] is 100 to 1000 nM.
Regarding `Cc1cc(N2CCC(C(F)(F)F)CC2)ccc1Nc1ccc2c(c1)CN(CC(N)=O)C2` [Compound 579, 2-(5-((2-methyl-4-(4-(trifluoromethyl)piperidin-1-yl)phenyl)amino)isoindolin-2-yl)acetamide], the concentration for a half-maximal effect (EC50) (Table 3) fell in the range of 0.1 to 100 nM.
The same measure, in the same setting: the figure for `O=C1COc2cc(Nc3ccc(N4CCC(C(F)(F)F)CC4)cc3)cc(F)c2N1` [Compound 619, 5-fluoro-7-({4-[4-(trifluoromethyl)piperidin-1-yl]phenyl}amino)-2,4-dihydro-1,4-benzoxazin-3-one] is 0.1 to 100 nM.
Consider `Cn1c(=O)c2ccc(Nc3ccc(N4CCC(C(F)(F)F)CC4)cc3)cc2n1C` [Compound 224, 1,2-dimethyl-6-((4-(4-(trifluoromethyl)piperidin-1-yl)phenyl)amino)-1,2-dihydro-3H-indazol-3-one], for which the concentration giving a half-maximal response (EC50) (Table 2) lay in the range of 0.1 to 100 nM.
For the compound `CN1CCOc2cc(Nc3ccc4c(c3)n(C)c(=O)n4C)ccc21` [Compound 288, 1,3-dimethyl-5-((4-methyl-3,4-dihydro-2H-benzo[b][1,4]oxazin-7-yl)amino)-1,3-dihydro-2H-benzo[d]imidazol-2-one], the EC50 (Table 2) is 0.1 to 100 nM.
Still for that read-out and setting: with `CN1C(=O)COc2cc(Nc3ccc(N4CCC(C(F)(F)F)CC4)cc3)ccc21` [Compound 2, 4-methyl-7-((4-(4-(trifluoromethyl)piperidin-1-yl)phenyl)amino)-2H-benzo[b][1,4]oxazin-3(4H)-one] the figure was 0.1 to 100 nM; with `CCC1Oc2cc(Nc3ccc(N4CC(C)OC(C)C4)cc3)ccc2N(C)C1=O` (stereo not drawn) [Compound 81, 7-((4-(2,6-dimethylmorpholino)phenyl)amino)-2-ethyl-4-methyl-2H-benzo[b][1,4]oxazin-3(4H)-one], 0.1 to 100 nM.
Same read-out and setting: the figure for `Cc1cc(N2CCC(C)CC2)c(Cl)cc1Nc1ccc2c(c1)n(C)c(=O)n2C` [Compound 265, 5-((5-chloro-2-methyl-4-(4-methylpiperidin-1-yl)phenyl)amino)-1,3-dimethyl-1,3-dihydro-2H-benzo[d]imidazol-2-one] is 0.1 to 100 nM.
Still for that read-out and setting: with `Cc1cc(Nc2ccc(N3CCC(C(F)(F)F)CC3)cc2)cc2c1C(=O)N(C)C2` [Compound 326, 2,7-dimethyl-5-((4-(4-(trifluoromethyl)piperidin-1-yl)phenyl)amino) isoindolin-1-one] the figure was 0.1 to 100 nM.
Regarding `Cc1cc(N2CCC(C(F)(F)F)CC2)ccc1Nc1ccc2[nH]c(=O)oc2c1` [Compound 496, 6-((2-methyl-4-(4-(trifluoromethyl)piperidin-1-yl)phenyl)amino) benzo[d]oxazol-2(3H)-one], for the setting “Table 3”, the concentration for a half-maximal effect (EC50) lay in the range of 0.1 to 100 nM.
